{Fethoc} = N-terminal Fethoc capping group (publication's abbreviation); [C(1O2)] = modified PNA monomer acting as cytosine, C(pOq) type, 1O2; [A(5)] = modified PNA monomer acting as adenine, A(p) type, p=5; [G(6)] = modified PNA monomer acting as guanine, G(p) type, p=6; {NH2} = C-terminal non-substituted amino (amide) group
Key:
human PD-1 pre-mRNA = assay: PD-1 nested PCR for exon skipping in Jurkat cells; format: cell-based; details: 5 hours
Experimental: “PD-ASO 3” was evaluated for its ability to induce the skipping of the human PD-1 exon 2 in Jurkat cells as follows. [Cell Culture & ASO Treatment] Jurkat cells (Cat. Number TIB-152, ATCC) were maintained in RPMI-1640 supplemented with 10% FBS and 1% streptomycin/penicillin. Jurkat cells grown in 60 mm culture dish containing 5 mL culture medium were treated for 5 hours with “PD-ASO 5” at 0 (negative control), 10, 100 or 1,000 aM. [RNA Extraction and cDNA Synthesis by One Step RT-PCR] Total RNA was extracted using RNAeasy mini prep kit (Qiagen, USA) according to the manufacturer's protocol. […] NO: 153); and PD-exon 5_reverse: (5'→3') […] NO: 154)]. Cycle conditions: 50° C. for 30 minutes and 94° C. for 2 minutes, which was followed by 30 cycles of 30 seconds at 94° C., 30 seconds at 53° C., and 1 minutes at 72° C. [Nested PCR Amplification] 1 μL of cDNA diluted by 100× was further amplified in a 20 μL nested PCR (Invitrogen, USA) using the following cycle conditions: 20 seconds at 95° C., 30 seconds at 56° C., and 40 seconds at 72° C. for 40 cycles against a set of exon-specific primers [PD-exon 1n_forward: (5'→3') […] NO: 155); and PD-exon 5n_reverse: (5'→3') […] NO: 156)]. [Identification of Exon Skipping Products] The resulting nested PCR products were subjected to electrophoretic separation on a 2% agarose gel. The bands of target size were collected and analyzed by Sanger sequencing.

human PD-1 mRNA = assay: PD-1 nested qPCR in Jurkat cells; format: cell-based; details: 24 hours; for decrease of PD-1 mRNA level (nested qPCR): activated Jurkat cells
Experimental: [Cell Culture & ASO Treatment] Jurkat cells grown in 60 mm culture dish were activated with an anti-CD3 antibody (Cat. Number 16-0037, eBioscience) at […] and an anti-CD28 antibody (Cat. No. 16-0289, eBioscience) at 0.5 μg/mL for 48 hours. Then the culture medium was replaced with fresh medium, and treated with “PD-ASO 3” at 0 (negative control), 10, 100 or 1,000 aM for 24 hours. (4 culture dishes per ASO concentration) [RNA Extraction and cDNA Synthesis by One Step RT-PCR] Total RNA was extracted using RNAeasy mini prep kit (Qiagen, USA) according to the manufacturer's protocol. […] NO: 157); and PD-exon 5_reverse: (5'→3') […] NO: 158)]. Cycle conditions: 50° C. for 30 minutes and 94° C. for 2 minutes, which was followed by 30 cycles of 30 seconds at 94° C., 30 seconds at 53° C., and 1 minutes at 72° C. [Nested qPCR by SYBR] […] NO: 159); and PD-exon 2_reverse: (5'→3') […] NO: 160)] according to the following cycle conditions: 20 seconds at 95° C., 30 seconds at 56° C., and 40 seconds at 72° C. for 40 cycles. The qPCR reaction was probed with SYBR (Bio-Rad, USA).

human IL-2 mRNA = assay: IL-2 qPCR in Jurkat cells; format: cell-based; details: 24 hours
Experimental: Down-regulation of the PD-1 activity has been known to upregulate the expression of interleukin 2 (IL-2). [Am. J. Clin. Oncol. Vol 39(1), 98-106 (2016)] […] [Cell Culture & ASO Treatment] Jurkat cells grown in 60 mm culture dish were activated with an anti-CD3 antibody (Cat. Number 16-0037, eBioscience) at 1 μg/mL and an anti-CD28 antibody (Cat. No. 16-0289, eBioscience) at 0.5 μg/mL for 48 hours. Then the culture medium was replaced with fresh medium, and treated with “PD-ASO 3” at 0 (negative control), 10, 100 or 1,000 aM for 24 hours. (4 culture dishes per ASO concentration) [RNA Extraction and cDNA Synthesis] Total RNA was extracted using RNeasy mini prep kit (Qiagen, USA) according to the manufacturer's protocol. […] [qPCR by SYBR] 1 μL of each cDNA solution was subjected to a 20 μL qPCR amplifications against a set of primers targeting the IL-2 mRNA [IL-2_forward: (5'→3') […] NO: 161); and IL-2_reverse: (5'→3') […] NO: 162)] according to the following cycle conditions: 20 seconds at 95° C., 30 seconds at 56° C., and 40 seconds at 72° C. for 40 cycles. The qPCR reaction was probed with SYBR (Bio-Rad, USA).

human IDO1 pre-mRNA = assay: IDO1 nested PCR for exon skipping in SKOV3 cells; format: cell-based; details: 48 hours
Experimental: “IDO-ASO 1” was evaluated for its ability to induce exon skipping in SKOV3 cells (Cat. Number HTB-77, ATCC) by IDO1 nested PCR as follows. [Cell Culture & ASO Treatment] SKOV3 (human ovary adenocarcinoma) cells were subcultured in 60 mm culture dish containing 5 mL McCoy's 5A modified medium supplemented with 10% FBS, 1% streptomycin/penicillin, 1% L-glutamine, and 1% sodium pyruvate under 5% CO2 at 37° C., and treated with “IDO-ASO 1” for 48 hours at 0 zM (negative control), 10 zM, 100 zM or 1 aM. [RNA Extraction & cDNA Synthesis by One-Step RT-PCR] Total RNA was extracted from the cells using “Universal RNA Extraction Kit” (Cat. Number 9767, Takara) according to the manufacturer's instructions. […] NO: 114); and IDO-exon 10_reverse: (5'→3') […] [Nested PCR Amplification] 1 μL of cDNA was further amplified in a 20 μL nested PCR reaction (Cat. No. K2612, Bioneer) against a set of exon-specific primers [IDO-exon 4_forward: (5'→3') […] NO: 116); and IDO-exon 9_reverse: (5'→3') […] [Identification of Exon Skipping Product] The PCR products were subjected to electrophoretic separation on a 2% agarose gel. The bands of target size were collected and analyzed by Sanger sequencing. […] [ASO Treatment] SKOV3 cells grown in 60 mm culture dish were treated with “IDO-ASO 5” at 0 (negative control), 1, 3, 10, 30 or 100 aM for 48 hours. [cDNA Synthesis by One-step PCR] […] NO: 119); and IDO-exon 8_reverse: (5'→3') […] [Nested PCR Amplification] 1 μL of cDNA was further amplified in a 20 μL nested PCR (Cat. No. K2612, Bioneer) reaction using a set of exon-specific primers [IDO-exon 1n_forward: (5'→3') […] NO: 121); and IDO-exon 8n_reverse: (5'→3') […] “IDO-ASO 6” was evaluated for its ability to induce exon skipping in SKOV3 cells by IDO1 nested PCR as described in “IDO1 Example 3” unless noted otherwise.

[1] = tested on: secretion of kynurenine in SKOV3 cells; assay: Kynurenine secretion assay in SKOV3 cells; format: cell-based, human; details: 24 hours, with 10 ng/mL γ-interferon
Experimental: The functional activity of “IDO-ASO 1” was evaluated for its ability to inhibit the secretion of kynurenine in SKOV3 cells as follows.
[Kynurenine Secretion Assay] […] (3 dishes per concentration) Cells were treated with the ASO along with 10 ng/mL γ-interferon to increase the kynurenine secretion. 24 hours later, 200 μL of the culture medium was sampled from each culture dish and mixed with 100 μL 30% trichloroacetic acid. The mixture was vortexed and subjected to centrifugation at 8,000 g for 5 min. 75 μL of the resulting supernatant was mixed with 75 μL Ehrlich reagent (0.8% p-dimethylamino-benzaldehyde in acetic acid), and the mixture was subjected to a quantification for kynurenine at 490 nm on an ELISA reader. [PLOS One 5(8): e63301 (2013)]

[2] = tested on: melanogenesis in B16F10 cells; assay: Melanin content (melanogenesis) in B16F10 cells; format: cell-based, mouse; details: 24 hours
Experimental: “TYR-ASO 4” was evaluated for its ability to inhibit the melanogenesis in B16F10 cells as described below.
B16F10 cells grown in 60 mm culture dish containing 5 mL culture medium were treated either with “TYR-ASO 4” at 0 (negative control) or 1 to 1,000 aM, or with 10 or 100 μg/mL arbutin as a positive control. (2 culture dishes per dose) 24 hours later, the cells were subjected to lysis with 200 μL 1N NaOH. Each lysate was collected in 1.5 mL e-tube, and kept overnight at room temperature. The melanin content in each lysate was determined by absorbance at 475 nm on an ELISA reader. The experiment was repeated four times using cells at different passage. The four sets of the melanin content data were pooled for statistical analysis by student's t-test against the melanin content without treatment (negative control).

[3] = activated Jurkat cells, 1,000 aM

For “Fethoc-CG(6)C-A(5)CC-TG(6)T-CA(5)C-C(1O2)C-NH2 (CGCACCTGTCACCC; splice-switching; all peptide nucleic acid (PNA), [G(6)] at 2, 8, [A(5)] at 4, 11, [C(1O2)] at 13, 5' {Fethoc}, 3' {NH2}; peptide nucleic acid backbone) [PD-ASO 3]”, the “PD-1 exon skipping by nested PCR” value (human PD-1 pre-mRNA; Jurkat cells, 10 and 100 aM) was “yielded a PCR product band corresponding to the skipping of exon 2”, the “PD-1 exon skipping by nested PCR” value (human PD-1 pre-mRNA; Jurkat cells, 1,000 aM) was “the PCR product of exon 2 skipping disappeared” and the “decrease of PD-1 mRNA level (nested qPCR)” value (human PD-1 mRNA; 10 and 100 aM) was > 80%. The “PD-1 mRNA level relative to the negative control level (nested qPCR)” value (human PD-1 mRNA; [3]) was ~55%, the “increase of IL-2 mRNA level (qPCR)” value (human IL-2 mRNA; activated Jurkat cells, 10 aM) was ~140% and the “increase of IL-2 mRNA level (qPCR)” value (human IL-2 mRNA; activated Jurkat cells, 100 aM) was 120%. For the same compound, the “increase of IL-2 mRNA level (qPCR)” value (human IL-2 mRNA; [3]) was 40%.
For “Fethoc-GG(6)A-A(5)TT-A(5)CC(1O2)-TAA(5)-A-NH2 (GGAATTACCTAAA; splice-switching; all peptide nucleic acid (PNA), [G(6)] at 2, [A(5)] at 4, 7, 12, [C(1O2)] at 9, 5' {Fethoc}, 3' {NH2}; peptide nucleic acid backbone) [IDO-ASO 1]”, the “intensity of the full-length IDO-1 mRNA by nested PCR” value (human IDO1 pre-mRNA; 1 aM) was “increased”, the “intensity of the full-length IDO-1 mRNA by nested PCR” value (human IDO1 pre-mRNA; 10 or 100 zM) was “decreased” and the “IDO1 exon skipping band by nested PCR” value (human IDO1 pre-mRNA; 10 zM or 1 aM) was “not detected”. The “skipping of IDO1 exons 6-7 by nested PCR” value (human IDO1 pre-mRNA; 100 zM) was “detected”, the “decrease of kynurenine secretion” value ([1]; 1 fM) was ~40% and the secretion of kynurenine ([1]; 10 zM to 1 fM except 1 aM) was “significantly (student's t-test) decreased”.
In the case of “Fethoc-C(1O2)TG(6)-GG(6)G-AG(6)T-CTG-A(5)G-NH2 (CTGGGGAGTCTGAG; splice-switching; all peptide nucleic acid (PNA), [C(1O2)] at 1, [G(6)] at 3, 5, 8, [A(5)] at 13, 5' {Fethoc}, 3' {NH2}; peptide nucleic acid backbone) [PD-ASO 1]”, the “decrease of PD-1 mRNA level (nested qPCR)” value (human PD-1 mRNA; 100 and 1,000 aM) was ~60%.
With `OC[C@H]1O[C@@H](Oc2ccc(O)cc2)[C@H](O)[C@@H](O)[C@@H]1O` [arbutin] the “decrease of melanin content” value ([2]; 10 μg/mL) was ~15% and the “decrease of melanin content” value ([2]; 100 μg/mL) was 25%.
